From patent publication US20260069560A1, “COMPOSITIONS AND METHODS OF USE” (UNIVERSITY OF FLORIDA RESEARCH FOUNDATION, INCORPORATED, priority 2022, published 2026) come the findings set out here.

The test system of assay [1] is primary mouse splenic CD8+ T cells. In words: Bioassay for IFNγ stimulation in primary splenic CD8+ T cells, flow cytometric analysis. The class given is cell-based. As to conditions: for IFNγ stimulation from primary splenic CD8+ T cells: synthetic compounds, concentration range 0.01-1 mM. As for the experimental part: Isolates are cultured in 96-well deep well plates for 3 days under anaerobic conditions in MEGA media. Cell-free supernatant is obtained by filtering cultures by […] syringe filtration. Cell-free supernatant is added to the serum-free culture media of primary mouse splenic CD8+ T cells at a ratio of 1:100, followed by 6 hours of incubation. After incubation, cells are harvested and stained for flow cytometric analysis, which is performed on the BD Fortessa LSR, followed by analysis using FlowJo.
FIGS. 11A-11F illustrate that synthetic cis-Bac430 induces dose-dependent stimulation of IFNγ production. Representative results are shown for IFNγ stimulation from primary splenic CD8+ T cells by cis-Bac430 and trans-Bac430 at a concentration range between 0.01-0.25 mM (FIG. 11A) or between 0.01-1 mM (FIG. 11B). P values calculated using Mann-Whitney U test compared to unstimulated negative control and PMA/Ionomycin-stimulated positive control. Representative results are shown for the percent of live CD8+ T cells from the bioassay for IFNγ stimulation by cis-Bac430 and trans-Bac430 at a concentration range between 0.01-0.25 mM (FIG. 11C) or between 0.01-1 mM (FIG. 11D). P values calculated using Mann-Whitney U test compared to unstimulated negative control and PMA/Ionomycin-stimulated positive control. Representative results are shown for mean±SEM of fecal Bac430 concentration in μM normalized to stool weight from SPF, germ free (GF) or six-consort colonized germ free mice 2 weeks post-colonization (FIG. 11E) or for each member of the six-consort following 3 days anaerobic culture (FIG. 11F).
Feces collected from R mice were used as source material for high-throughput microbial isolation performed with the GALT Prospector technology. Bacterial identification was performed using MALDI-TOF Biotyper and Sanger sequencing. The cell free supernatants and <3 kDa small molecules of 183 Bacteroides isolates were screened for their ability to stimulate IFNγ production via a bioassay using primary CD8+ T cells and flow cytometric analysis. A consortium composed of six IFNγ-stimulating isolates or NR feces was transplanted into a gnotobiotic mouse model of lung cancer and treated with anti-PD-1, with or without anti-IFNγ monoclonal antibody depletion. Tumors were harvested at endpoint for flow cytometric analysis, and blood serum for IFNγ ELISA. […] Vacuum and high-performance liquid chromatography were used to identify fractions from the cell free supernatant of a single stimulating Bacteroides isolate which stimulate IFNγ production.
To summarize, small molecule characterization was performed using LC-MS/MS and computation pipelines for structural prediction. […]
Background: A flow cytometer gives signals particle by particle.

Assay [2] has as its system LLC subcutaneous allograft tumors. In words: Intratumoral injection of cis-Bac430 in combination with anti-PD-1 therapy in lung tumor-bearing mice. The class given is in vivo. As for the experimental part: FIGS. 12A-12G illustrate that intratumoral administration of cis-Bac430 in combination with anti-PD-1 therapy reduces tumor volume and enhances systemic anti-tumor immunity. An experimental schematic is shown for testing anti-PD-1 mediated anti-tumor effect in combination with intratumoral injection of cis-Bac430 or DMSO control (FIG. 12A). Representative results are shown for the growth curve of LLC subcutaneous allograft tumors receiving intratumoral injection of either cis-Bac430 (0.043 mg/mouse) or DMSO alone at the same time as anti-PD-1 treatment or saline control (FIG. 12n). Each point represents tumor volume mean±SEM. At day 20, P values are calculated by Mann-Whitney U test. Representative results are shown for the mean±SEM of tumor weight at the endpoint for mice treated with an anti-PD-1 monoclonal antibody or saline control that received intratumoral injection of either cis-Bac430 or DMSO (FIG. 12C). P values are calculated by Mann-Whitney U test. Representative results are shown for the mean±SEM of intratumoral CD8+ frequency at endpoint for mice treated with an anti-PD-1 monoclonal antibody or saline control that received intratumoral injection of either cis-Bac430 or DMSO (FIG. 12D). P values are calculated by Mann-Whitney U test. Representative results are shown for the mean±SEM of intratumoral IFNγ+CD8+ frequency at endpoint for mice treated with an anti-PD-1 monoclonal antibody or saline control that received intratumoral injection of either cis-Bac430 or DMSO (FIG. 12E). P values are calculated by Mann-Whitney U test. Representative results are shown for the mean±SEM of splenic CD8+ frequency at endpoint for mice treated with an anti-PD-1 monoclonal antibody or saline control that received intratumoral injection of either cis-Bac430 or DMSO (FIG. 12F). P values are calculated by Mann-Whitney U test. Representative results are shown for the mean±SEM of splenic IFNγ+CD8+ frequency at endpoint for mice treated with an anti-PD-1 monoclonal antibody or saline control that received intratumoral injection of either cis-Bac430 or DMSO (FIG. 12G). P values are calculated by Mann-Whitney U test.
Lung tumor-bearing mice were injected intratumorally with a 10 μL volume of either 10 mM (0.043 mg/dose) cis-Bac430 or DMSO on each day of anti-PD-1 therapy (FIG. 12A).

[3] abbreviates: combined with anti-PD-1, endpoint.
Setting [4] is: intratumoral 0.043 mg/dose on each day of anti-PD-1 therapy, compared to anti-PD-1 or DMSO injection.
Where [5] appears, read: intratumoral administration, endpoint.

For `CCCCCC/C=C/CCCCCCCCCC(=O)N[C@@H](Cc1ccccc1)C(=O)O` [trans-Bac430], the “IFNγ stimulation from primary splenic CD8+ T cells” value (“IFNγ stimulation” for short) in assay [1] is “does not demonstrate bioactivity”.
Take `CCCCCC/C=C\CCCCCCCCCC(=O)N[C@@H](Cc1ccccc1)C(=O)O` [cis-Bac430]: the “proliferative effect on CD8+ T cells (percent of live CD8+ T cells)” value in assay [1] (higher concentrations) is recorded as “mild proliferative effect”. The “IFNγ stimulation” value in assay [1] is “dose dependent bioactivity”. In addition, the “IFNγ stimulation” value in assay [1] (listed as Cis-Bac430) is given as “robustly stimulate IFNγ”. Moreover, in assay [2] (setting [3]), the “frequency of intratumoral CD8+ T cells” value is recorded as “increased frequency” and the “tumor infiltrating cytotoxic IFNγ+CD8+ T cells” value is reported as “trend toward increased”. In assay [2] (setting [4]), the “tumor volume at endpoint” value was “significantly smaller” and the “tumor weight at endpoint” value was “significantly smaller”. For the same molecule, in assay [2] (setting [5]), the “splenic IFNγ+CD8+ T cells” value was “trend toward increased” and the “splenic overall CD8+ T cell frequency” value is on record as “decreased”.
